Data taken from ChEMBL document CHEMBL5465560, “Selectivity Literature for EUbOPEN Chemogenomic Library” (2024).

What was measured:
[1] = target: Serine/threonine-protein kinase mTOR (Homo sapiens, UniProt P42345); assay: Selectivity interaction (KinomeScan (DiscoverX)) EUB0000666a MTOR; conditions: at 10 µM
[2] = tested on: Tyrosine-protein kinase ABL1 (Homo sapiens), P00519 [F317L]; assay: Selectivity interaction (KinomeScan (DiscoverX)) EUB0000666a ABL1; conditions: at 10 µM
[3] = target: Tyrosine-protein kinase JAK2 (Homo sapiens, UniProt O60674); assay: Selectivity interaction (SelectScreen profiling (Invitrogen)) EUB0000607a JAK2; conditions: at 2 µM
Tyrosine-protein kinase JAK2, sequence (O60674 whole entry): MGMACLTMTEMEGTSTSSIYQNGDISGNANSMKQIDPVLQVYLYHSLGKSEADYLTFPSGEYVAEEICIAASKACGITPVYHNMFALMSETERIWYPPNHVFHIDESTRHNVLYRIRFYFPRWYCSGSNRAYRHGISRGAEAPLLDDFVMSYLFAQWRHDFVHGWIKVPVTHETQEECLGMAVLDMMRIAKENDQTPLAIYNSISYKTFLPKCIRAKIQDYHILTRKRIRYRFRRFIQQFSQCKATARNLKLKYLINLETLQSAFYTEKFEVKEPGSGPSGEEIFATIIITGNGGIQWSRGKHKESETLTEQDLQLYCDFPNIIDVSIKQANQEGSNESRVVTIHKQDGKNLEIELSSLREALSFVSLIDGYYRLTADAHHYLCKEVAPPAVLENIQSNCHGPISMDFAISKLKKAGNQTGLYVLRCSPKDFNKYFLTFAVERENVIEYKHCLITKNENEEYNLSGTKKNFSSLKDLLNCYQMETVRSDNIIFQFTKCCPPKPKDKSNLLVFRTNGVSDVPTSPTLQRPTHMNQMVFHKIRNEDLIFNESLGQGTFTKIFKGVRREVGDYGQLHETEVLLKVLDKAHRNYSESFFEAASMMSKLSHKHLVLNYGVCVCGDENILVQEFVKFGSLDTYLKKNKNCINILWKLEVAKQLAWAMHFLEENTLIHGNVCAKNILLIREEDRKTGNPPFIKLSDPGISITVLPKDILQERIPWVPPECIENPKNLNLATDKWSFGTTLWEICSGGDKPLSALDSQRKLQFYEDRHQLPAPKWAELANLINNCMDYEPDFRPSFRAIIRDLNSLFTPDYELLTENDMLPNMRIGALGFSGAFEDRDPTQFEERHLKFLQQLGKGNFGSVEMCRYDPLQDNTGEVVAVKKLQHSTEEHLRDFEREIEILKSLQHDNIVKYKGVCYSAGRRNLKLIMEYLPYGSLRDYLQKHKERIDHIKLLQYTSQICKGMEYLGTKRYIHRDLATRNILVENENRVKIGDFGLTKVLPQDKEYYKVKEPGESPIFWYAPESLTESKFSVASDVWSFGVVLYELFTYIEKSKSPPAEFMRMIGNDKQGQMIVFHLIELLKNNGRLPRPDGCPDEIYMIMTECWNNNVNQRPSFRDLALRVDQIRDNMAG

[4] = target: Insulin receptor-related protein (Homo sapiens) (UniProt P14616); conditions: at 10 µM
Insulin receptor-related protein (Homo sapiens), sequence (P14616 27-742 limits assumed): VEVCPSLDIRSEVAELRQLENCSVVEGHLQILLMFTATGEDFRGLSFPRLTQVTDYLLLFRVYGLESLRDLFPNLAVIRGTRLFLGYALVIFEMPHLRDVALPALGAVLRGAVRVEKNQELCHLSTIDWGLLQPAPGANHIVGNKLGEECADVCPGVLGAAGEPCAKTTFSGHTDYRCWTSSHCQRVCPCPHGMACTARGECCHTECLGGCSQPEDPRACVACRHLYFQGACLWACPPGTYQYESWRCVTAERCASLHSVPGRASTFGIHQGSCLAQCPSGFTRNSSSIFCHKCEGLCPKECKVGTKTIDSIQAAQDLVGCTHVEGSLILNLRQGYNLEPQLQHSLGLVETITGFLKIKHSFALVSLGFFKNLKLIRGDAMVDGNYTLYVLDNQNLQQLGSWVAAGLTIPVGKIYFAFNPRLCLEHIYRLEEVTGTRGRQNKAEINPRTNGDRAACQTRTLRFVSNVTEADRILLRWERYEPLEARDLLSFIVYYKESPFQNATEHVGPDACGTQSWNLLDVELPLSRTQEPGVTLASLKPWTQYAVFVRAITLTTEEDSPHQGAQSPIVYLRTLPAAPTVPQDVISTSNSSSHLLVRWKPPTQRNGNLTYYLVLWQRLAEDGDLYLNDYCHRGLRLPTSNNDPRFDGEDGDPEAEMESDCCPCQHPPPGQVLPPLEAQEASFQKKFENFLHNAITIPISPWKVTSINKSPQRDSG
Insulin receptor-related protein (Homo sapiens), sequence (P14616 747-1297 limits assumed): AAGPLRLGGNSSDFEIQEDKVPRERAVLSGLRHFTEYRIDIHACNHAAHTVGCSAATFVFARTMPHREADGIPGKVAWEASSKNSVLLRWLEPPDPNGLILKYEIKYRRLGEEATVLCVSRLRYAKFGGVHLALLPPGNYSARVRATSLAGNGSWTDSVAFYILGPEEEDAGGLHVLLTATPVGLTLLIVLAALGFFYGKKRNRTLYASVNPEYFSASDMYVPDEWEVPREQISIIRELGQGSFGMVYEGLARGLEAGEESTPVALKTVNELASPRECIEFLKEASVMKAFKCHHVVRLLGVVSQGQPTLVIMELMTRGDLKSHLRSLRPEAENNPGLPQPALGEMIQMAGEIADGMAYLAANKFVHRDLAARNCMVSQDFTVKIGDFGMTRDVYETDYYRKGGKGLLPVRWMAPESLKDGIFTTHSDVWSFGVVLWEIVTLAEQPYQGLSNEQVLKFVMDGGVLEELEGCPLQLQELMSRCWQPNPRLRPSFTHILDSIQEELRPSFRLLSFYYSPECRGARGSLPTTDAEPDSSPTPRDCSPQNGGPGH

[5] = target: T1, Scaffold protein ILK (Homo sapiens) (UniProt Q13418); assay: Selectivity interaction (ActivX KiNativ screen (kinase selectivity in THP-1 cell lysates)) EUB0000639a ILK; format: subcellular; conditions: lysate, at 5 µM
T1 sequence (whole entry): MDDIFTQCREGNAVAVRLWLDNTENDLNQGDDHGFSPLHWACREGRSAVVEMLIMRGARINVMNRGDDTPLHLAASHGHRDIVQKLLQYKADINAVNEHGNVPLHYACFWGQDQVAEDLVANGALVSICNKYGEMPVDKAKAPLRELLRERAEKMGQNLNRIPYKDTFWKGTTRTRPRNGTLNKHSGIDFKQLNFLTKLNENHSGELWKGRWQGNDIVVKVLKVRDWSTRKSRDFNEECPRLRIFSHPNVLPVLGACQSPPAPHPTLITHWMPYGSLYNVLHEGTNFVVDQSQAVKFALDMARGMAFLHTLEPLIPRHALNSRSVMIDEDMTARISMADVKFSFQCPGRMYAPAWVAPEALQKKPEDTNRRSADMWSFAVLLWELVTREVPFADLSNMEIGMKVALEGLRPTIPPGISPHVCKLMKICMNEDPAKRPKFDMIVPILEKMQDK

[6] = target: T2, Tyrosine-protein kinase Mer (Homo sapiens) (UniProt Q12866); assay: Selectivity interaction (Kinase screening (Nanosyn)) EUB0000604a MERTK
T2 sequence (whole entry): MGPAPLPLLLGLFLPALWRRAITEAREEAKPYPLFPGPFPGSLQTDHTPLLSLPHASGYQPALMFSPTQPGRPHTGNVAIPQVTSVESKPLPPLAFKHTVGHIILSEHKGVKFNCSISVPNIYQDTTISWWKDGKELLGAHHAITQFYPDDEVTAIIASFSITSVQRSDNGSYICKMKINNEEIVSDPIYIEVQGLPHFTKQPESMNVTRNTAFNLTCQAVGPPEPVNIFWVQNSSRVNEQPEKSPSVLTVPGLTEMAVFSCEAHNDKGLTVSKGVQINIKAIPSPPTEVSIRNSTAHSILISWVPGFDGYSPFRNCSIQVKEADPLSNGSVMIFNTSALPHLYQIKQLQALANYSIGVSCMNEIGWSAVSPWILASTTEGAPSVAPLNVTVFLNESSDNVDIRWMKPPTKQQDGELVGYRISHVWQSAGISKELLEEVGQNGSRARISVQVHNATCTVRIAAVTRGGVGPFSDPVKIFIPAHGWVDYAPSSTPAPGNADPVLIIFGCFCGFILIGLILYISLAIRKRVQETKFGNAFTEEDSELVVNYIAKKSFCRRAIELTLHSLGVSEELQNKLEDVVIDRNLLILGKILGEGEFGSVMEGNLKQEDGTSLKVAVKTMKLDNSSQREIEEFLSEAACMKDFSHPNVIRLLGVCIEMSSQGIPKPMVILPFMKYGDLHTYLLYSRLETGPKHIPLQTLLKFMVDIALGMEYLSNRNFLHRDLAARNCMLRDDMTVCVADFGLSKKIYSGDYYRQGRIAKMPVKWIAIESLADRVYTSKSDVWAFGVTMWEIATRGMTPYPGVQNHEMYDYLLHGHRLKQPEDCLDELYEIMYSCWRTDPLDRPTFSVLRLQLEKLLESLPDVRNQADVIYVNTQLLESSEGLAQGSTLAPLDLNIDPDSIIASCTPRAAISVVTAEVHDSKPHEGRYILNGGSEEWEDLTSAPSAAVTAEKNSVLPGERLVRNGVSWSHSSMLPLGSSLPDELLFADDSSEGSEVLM

[7] = target: Serine/threonine-protein kinase Nek6 (Homo sapiens) (UniProt Q9HC98); assay: Selectivity interaction (KinomeScan (DiscoverX)) EUB0000092b NEK6; conditions: at 10 µM
Serine/threonine-protein kinase Nek6 (Homo sapiens), sequence (Q9HC98 whole entry): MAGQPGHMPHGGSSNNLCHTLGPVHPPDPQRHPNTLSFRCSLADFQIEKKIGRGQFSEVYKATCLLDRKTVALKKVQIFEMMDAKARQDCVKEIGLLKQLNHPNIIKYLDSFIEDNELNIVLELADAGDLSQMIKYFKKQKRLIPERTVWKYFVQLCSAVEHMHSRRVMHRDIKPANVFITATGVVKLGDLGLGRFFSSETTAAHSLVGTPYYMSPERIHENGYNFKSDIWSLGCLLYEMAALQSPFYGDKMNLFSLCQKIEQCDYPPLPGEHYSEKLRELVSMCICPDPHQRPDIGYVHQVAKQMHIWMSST

[8] = target: Leukocyte tyrosine kinase receptor (Homo sapiens, UniProt P29376); assay: Selectivity interaction (KinomeScan (DiscoverX)) EUB0001619a LTK; conditions: at 1 µM
Leukocyte tyrosine kinase receptor, sequence (P29376 whole entry): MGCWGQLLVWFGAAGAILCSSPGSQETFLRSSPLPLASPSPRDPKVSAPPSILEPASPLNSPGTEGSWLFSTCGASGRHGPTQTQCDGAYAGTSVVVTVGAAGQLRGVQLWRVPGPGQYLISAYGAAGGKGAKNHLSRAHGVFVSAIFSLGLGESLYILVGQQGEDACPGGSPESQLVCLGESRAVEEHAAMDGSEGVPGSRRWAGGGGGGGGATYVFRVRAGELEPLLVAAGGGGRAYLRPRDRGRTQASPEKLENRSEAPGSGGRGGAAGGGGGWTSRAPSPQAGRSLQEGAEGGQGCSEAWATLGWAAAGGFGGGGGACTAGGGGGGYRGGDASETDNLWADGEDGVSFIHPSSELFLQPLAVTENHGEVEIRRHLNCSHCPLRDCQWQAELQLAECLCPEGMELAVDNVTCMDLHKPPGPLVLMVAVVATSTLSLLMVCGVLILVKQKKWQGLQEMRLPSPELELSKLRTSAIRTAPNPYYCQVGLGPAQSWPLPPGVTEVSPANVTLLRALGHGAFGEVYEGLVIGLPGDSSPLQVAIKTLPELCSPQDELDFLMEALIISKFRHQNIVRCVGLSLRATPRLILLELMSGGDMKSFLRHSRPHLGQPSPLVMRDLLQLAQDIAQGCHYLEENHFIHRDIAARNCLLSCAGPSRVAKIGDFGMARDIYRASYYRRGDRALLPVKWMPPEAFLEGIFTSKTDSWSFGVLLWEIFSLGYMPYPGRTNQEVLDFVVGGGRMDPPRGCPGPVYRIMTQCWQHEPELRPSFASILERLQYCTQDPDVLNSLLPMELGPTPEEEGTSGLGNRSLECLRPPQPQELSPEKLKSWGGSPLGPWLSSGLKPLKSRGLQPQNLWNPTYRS

[9] = target: T3, Interleukin-1 receptor-associated kinase 3 (Homo sapiens) (UniProt Q9Y616); assay: Selectivity interaction (KinomeScan (DiscoverX)) EUB0001619a IRAK3; conditions: at 1 µM
T3 sequence (whole entry): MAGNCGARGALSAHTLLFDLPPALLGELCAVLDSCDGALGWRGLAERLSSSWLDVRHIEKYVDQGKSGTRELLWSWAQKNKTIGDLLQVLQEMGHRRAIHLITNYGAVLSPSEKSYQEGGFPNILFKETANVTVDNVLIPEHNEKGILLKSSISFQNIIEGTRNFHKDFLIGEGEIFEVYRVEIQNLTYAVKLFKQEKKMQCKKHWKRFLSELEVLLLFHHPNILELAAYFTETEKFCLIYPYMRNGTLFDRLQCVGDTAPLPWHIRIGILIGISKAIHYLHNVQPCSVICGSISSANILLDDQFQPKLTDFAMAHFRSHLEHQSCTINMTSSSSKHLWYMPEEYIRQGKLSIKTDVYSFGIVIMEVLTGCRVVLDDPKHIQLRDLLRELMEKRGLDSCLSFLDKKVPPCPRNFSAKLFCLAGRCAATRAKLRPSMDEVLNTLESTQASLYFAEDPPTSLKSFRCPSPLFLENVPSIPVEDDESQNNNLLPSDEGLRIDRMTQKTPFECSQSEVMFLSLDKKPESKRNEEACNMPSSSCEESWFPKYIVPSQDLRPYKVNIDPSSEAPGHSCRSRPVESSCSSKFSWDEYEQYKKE

Tyrosine-protein kinase ABL1 (Homo sapiens), P00519 [F317L], sequence (P00519 whole entry F317L): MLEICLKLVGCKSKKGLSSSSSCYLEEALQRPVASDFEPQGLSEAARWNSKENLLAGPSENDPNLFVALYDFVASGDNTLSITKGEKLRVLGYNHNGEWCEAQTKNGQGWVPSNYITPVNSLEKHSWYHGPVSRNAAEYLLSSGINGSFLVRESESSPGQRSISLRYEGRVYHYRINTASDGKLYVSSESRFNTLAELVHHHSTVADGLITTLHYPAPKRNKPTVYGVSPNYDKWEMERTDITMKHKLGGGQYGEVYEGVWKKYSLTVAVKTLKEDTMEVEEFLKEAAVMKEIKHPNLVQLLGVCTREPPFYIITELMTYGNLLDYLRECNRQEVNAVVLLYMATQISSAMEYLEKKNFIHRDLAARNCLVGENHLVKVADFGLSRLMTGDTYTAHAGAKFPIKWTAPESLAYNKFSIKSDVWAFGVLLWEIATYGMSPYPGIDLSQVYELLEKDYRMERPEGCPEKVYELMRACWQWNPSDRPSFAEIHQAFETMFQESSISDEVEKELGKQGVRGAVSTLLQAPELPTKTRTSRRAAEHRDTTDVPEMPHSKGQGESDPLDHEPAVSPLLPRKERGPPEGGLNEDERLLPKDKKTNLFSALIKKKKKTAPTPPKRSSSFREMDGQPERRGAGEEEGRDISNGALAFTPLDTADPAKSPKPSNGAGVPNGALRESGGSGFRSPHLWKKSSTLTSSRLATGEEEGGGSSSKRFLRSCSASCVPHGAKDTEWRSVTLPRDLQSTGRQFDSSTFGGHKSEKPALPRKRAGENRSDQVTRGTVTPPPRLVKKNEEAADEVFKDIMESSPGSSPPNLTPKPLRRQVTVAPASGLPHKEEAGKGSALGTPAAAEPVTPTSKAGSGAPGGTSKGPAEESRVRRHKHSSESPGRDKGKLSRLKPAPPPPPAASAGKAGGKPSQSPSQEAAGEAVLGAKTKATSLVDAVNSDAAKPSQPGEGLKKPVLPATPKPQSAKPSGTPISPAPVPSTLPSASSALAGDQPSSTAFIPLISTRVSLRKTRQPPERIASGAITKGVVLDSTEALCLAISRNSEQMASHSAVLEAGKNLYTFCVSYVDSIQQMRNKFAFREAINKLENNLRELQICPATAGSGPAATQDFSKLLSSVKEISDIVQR

## O=C(NOC[C@H](O)CO)c1ccc(F)c(F)c1Nc1ccc(I)cc1F
[1]
  % of control: 100%
[2]
  % of control: 86%

## CNC(=O)Nc1ccc(-c2nc(N3CC4CCC(C3)O4)c3cnn(C4CCC5(CC4)OCCO5)c3n2)cc1
[3]
  % of inhibition: 2%

## CCN(CC)CCCCNc1ncc2cc(-c3cc(OC)cc(OC)c3)c(NC(=O)NC(C)(C)C)nc2n1
[4]
  % of control: 100%

## CC[C@@H]1[C@H](F)C(=O)N[C@@H]1COc1nccc2cc(C(N)=O)c(OC)cc12 [ZIMLOVISERTIB]
[5]
  % of inhibition: -24.1%

## Cc1cnc(Nc2ccc(F)cc2Cl)nc1-c1c[nH]c(C(=O)N[C@H](CO)c2cccc(Cl)c2)c1
[6]
  % of inhibition: 9%

## CCC(=O)N1CCN(c2ccc(-n3c(=O)ccc4cnc5ccc(-c6cnc7ccccc7c6)cc5c43)cc2C(F)(F)F)CC1
[7]
  % of control: 99%

## N#Cc1cccc(-c2c[nH]c3ncnc(N4CCOCC4)c23)c1
[8]
  % of control: 100%
[9]
  % of control: 74%
